Assay [1] addresses Peptidyl-prolyl cis-trans isomerase FKBP1A (Homo sapiens, UniProt P62942). Description: Binding affinity to human FKBP12 FK1 domain incubated for 30 mins using fluorescein-conjugated 2-(5-((2-(3-((R)-3-(3,4-dimethoxyphenyl)-1-((S)-1-(3,3-dimethyl-2-oxopentanoyl)piperidine-2-carbonyloxy)propyl)phenoxy)acetamido)methyl)-6-hydroxy-3-oxo-3H-xanthen-9-yl)benzoic acid by competitive fluorescence polarization assay.

For assay [2], the target named is T1, Peptidyl-prolyl cis-trans isomerase FKBP5 (Homo sapiens, UniProt Q13451).
T1 sequence (Q13451 whole entry): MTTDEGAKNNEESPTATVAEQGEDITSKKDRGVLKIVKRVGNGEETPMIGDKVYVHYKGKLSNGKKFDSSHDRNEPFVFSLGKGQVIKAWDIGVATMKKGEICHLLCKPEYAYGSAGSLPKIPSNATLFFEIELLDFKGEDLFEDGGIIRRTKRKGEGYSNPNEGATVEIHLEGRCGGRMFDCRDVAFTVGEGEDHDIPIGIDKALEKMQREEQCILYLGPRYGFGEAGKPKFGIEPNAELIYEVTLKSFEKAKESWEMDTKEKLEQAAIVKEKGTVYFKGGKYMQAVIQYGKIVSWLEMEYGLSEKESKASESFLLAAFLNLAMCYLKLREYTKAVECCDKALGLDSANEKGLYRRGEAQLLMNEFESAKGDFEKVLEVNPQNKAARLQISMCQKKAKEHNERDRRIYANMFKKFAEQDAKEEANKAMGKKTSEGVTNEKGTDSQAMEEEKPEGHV
In words: Binding affinity to FKBP51 FK506-binding domain (1 to 140 amino acids) (unknown origin) incubated for 30 mins using fluorescein-conjugated 2-(5-((2-(3-((R)-3-(3,4-dimethoxyphenyl)-1-((S)-1-(3,3-dimethyl-2-oxopentanoyl)piperidine-2-carbonyloxy)propyl)phenoxy)acetamido)methyl)-6-hydroxy-3-oxo-3H-xanthen-9-yl)benzoic acid by competitive fluorescence polarization assay. (Polarisation of emitted light reports the rotation of a fluorescent probe.)

Assay [3] addresses T2, Peptidyl-prolyl cis-trans isomerase FKBP4 (Homo sapiens) (UniProt Q02790).
T2 sequence (whole entry): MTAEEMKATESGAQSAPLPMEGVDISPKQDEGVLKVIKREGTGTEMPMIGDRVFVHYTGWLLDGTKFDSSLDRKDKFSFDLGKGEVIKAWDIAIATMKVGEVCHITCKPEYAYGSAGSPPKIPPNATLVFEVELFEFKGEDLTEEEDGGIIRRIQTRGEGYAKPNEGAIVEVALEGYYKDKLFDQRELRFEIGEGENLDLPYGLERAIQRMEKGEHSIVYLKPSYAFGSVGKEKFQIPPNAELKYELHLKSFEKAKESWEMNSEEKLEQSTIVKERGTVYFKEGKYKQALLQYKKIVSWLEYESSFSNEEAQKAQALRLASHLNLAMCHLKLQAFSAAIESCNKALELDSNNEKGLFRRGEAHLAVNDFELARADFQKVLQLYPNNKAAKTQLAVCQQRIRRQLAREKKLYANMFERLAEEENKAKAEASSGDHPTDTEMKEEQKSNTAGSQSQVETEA
Description: Binding affinity to FKBP52 (1 to 140 amino acids) (unknown origin) up to 500 uM incubated for 30 mins using fluorescein-conjugated 2-(5-((2-(3-((R)-3-(3,4-dimethoxyphenyl)-1-((S)-1-(3,3-dimethyl-2-oxopentanoyl)piperidine-2-carbonyloxy)propyl)phenoxy)acetamido)methyl)-6-hydroxy-3-oxo-3H-xanthen-9-yl)benzoic acid by competitive fluorescence polarization assay.

In assay [4] the target is T1, Peptidyl-prolyl cis-trans isomerase FKBP5.
Description: Binding affinity to FKBP51 (unknown origin) by competitive fluorescence polarization assay

pKi: −log10 of the molar value. Activity calls are given as the source filed them. The rule behind the calls is not given here.

Sequence of Peptidyl-prolyl cis-trans isomerase FKBP1A (P62942 whole entry, the tested form may be a part): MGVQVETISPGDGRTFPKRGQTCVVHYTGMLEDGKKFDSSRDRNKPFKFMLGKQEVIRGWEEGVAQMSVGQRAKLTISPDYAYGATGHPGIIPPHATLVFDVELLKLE

Consider `COc1cc([C@@H](C(=O)N2CCCC[C@H]2C(=O)NC2(C(N)=O)CC2)C2CCCCC2)cc(OC)c1OC`, for which the figures for the pKi in assay [1] and in assay [2] were 4.30 and 4.71, respectively.

Regarding `COc1cc([C@@H](C(=O)N2CCCC[C@H]2C(=O)N[C@@H](CCC(N)=O)C(N)=O)C2CCCCC2)cc(OC)c1OC`, the negative-log Ki (pKi) in assay [2] is 3.46.

As for `COc1cc([C@@H](C(=O)N2CCCC[C@H]2C(=O)NC2(C(=O)NCC(N)=O)CCCC2)C2CCCCC2)cc(OC)c1OC`, the pKi in assay [1] was 5.70; in assay [2] it was 6.10. Turning to `COc1cc([C@@H](C(=O)N2CCCC[C@H]2C(=O)NCCC(N)=O)C2CCCCC2)cc(OC)c1OC`, the values for the pKi in assay [1] and in assay [2] were 4.31 and 5.25, respectively.

Turning to `COc1cc([C@@H](C(=O)N2CCCC[C@H]2C(=O)N[C@H](Cc2ccccc2)C(N)=O)C2CCCCC2)cc(OC)c1OC`, the negative-log Ki (pKi) in assay [1] is 5.25; in assay [2], 5.85. For `CC[C@H](NC(=O)[C@@H]1CCCCN1C(=O)[C@H](c1cc(OC)c(OC)c(OC)c1)C1CCCCC1)C(N)=O`, the values for the negative-log Ki (pKi) in assay [1] and in assay [2] were 4.28 and 5.44, respectively. The compound `COc1cc([C@@H](C(=O)N2CCCC[C@H]2C(=O)N[C@@H](CO)C(N)=O)C2CCCCC2)cc(OC)c1OC` showed a negative-log Ki (pKi) in assay [2] of 4.20. As for `COc1cc([C@@H](C(=O)N2CCCC[C@H]2C(=O)N[C@H](C(N)=O)c2ccccc2)C2CCCCC2)cc(OC)c1OC`, the negative-log Ki (pKi) in assay [1] is 5.12. With `COc1cc([C@@H](C(=O)N2CCCC[C@H]2C(=O)NC2(C(N)=O)CCCC2)C2CCCCC2)cc(OC)c1OC`, the results for the pKi in assay [1] and in assay [2] were 5.42 and 6.85, respectively. Also, the inhibition result in assay [3] was “inactive”.

On to `CC[C@H](C)[C@H](NC(=O)[C@@H]1CCCCN1C(=O)[C@H](c1cc(OC)c(OC)c(OC)c1)C1CCCCC1)C(N)=O`, for which the pKi was 4.92 in assay [1] and 5.15 in assay [2]. In turn, `CCNC(=O)[C@@H]1CCCCN1C(=O)[C@H](c1cc(OC)c(OC)c(OC)c1)C1CCCCC1` gave a pKi in assay [2] of 4.26.

Turning to `CC[C@@H](C)[C@@H](NC(=O)[C@@H]1CCCCN1C(=O)[C@H](c1cc(OC)c(OC)c(OC)c1)C1CCCCC1)C(N)=O`, the pKi in assay [1] was 5.06; in assay [2], 5.49. For the compound `COc1cc([C@@H](C(=O)N2CCCC[C@H]2C(=O)N[C@@H](C(N)=O)c2ccccc2)C2CCCCC2)cc(OC)c1OC`, the negative-log Ki (pKi) in assay [1] was 4.91.

In turn, `COc1cc([C@@H](C(=O)N2CCCC[C@H]2C(=O)N[C@@H](CCO)C(N)=O)C2CCCCC2)cc(OC)c1OC` showed a pKi in assay [1] of 3.50.

With `COc1cc([C@@H](C(=O)N2CCCC[C@H]2C(=O)N[C@H](CO)C(N)=O)C2CCCCC2)cc(OC)c1OC`, the negative-log Ki (pKi) in assay [1] was 4.33; in assay [2], 5.55. As to `COc1cc([C@@H](C(=O)N2CCCC[C@H]2C(=O)NC(C)(C)C(N)=O)C2CCCCC2)cc(OC)c1OC`, the pKi is 4.60 in assay [1] and 5.66 in assay [2]. On the same counts, the results for `COc1cc([C@@H](C(=O)N2CCCC[C@H]2C(=O)N[C@H](CCC(N)=O)C(N)=O)C2CCCCC2)cc(OC)c1OC` are 3.92 and 5.47.

As for `COc1ccc(CC[C@@H](NC(=O)[C@@H]2CCCCN2C(=O)[C@H](c2cc(OC)c(OC)c(OC)c2)C2CCCCC2)c2cccc(OCC(=O)O)c2)cc1OC`, in assay [2], the negative-log Ki (pKi) is 7.37.

`COc1cc([C@@H](C(=O)N2CCCC[C@H]2C(=O)NCC(N)=O)C2CCCCC2)cc(OC)c1OC`: the pKi in assay [1] was below 3.52; in assay [2], 4.44.

Regarding `COc1cc([C@@H](C(=O)N2CCCC[C@H]2C(=O)N[C@@H](C(N)=O)C(C)C)C2CCCCC2)cc(OC)c1OC`, the values for the negative-log Ki (pKi) in assay [1] and in assay [2] were 4.40 and 5.30, respectively. `COc1cc([C@@H](C(=O)N2CCCC[C@H]2C(=O)N[C@H](C)C(N)=O)C2CCCCC2)cc(OC)c1OC`: the pKi in assay [1] is 4.15; in assay [2] it was 5.00. For the compound `COc1cc([C@@H](C(=O)N2CCCC[C@H]2C(=O)N[C@@H](CC2CCCCC2)C(N)=O)C2CCCCC2)cc(OC)c1OC`, the values for the pKi in assay [1] and in assay [2] were 5.18 and 4.75, respectively.

For `COc1cc([C@@H](C(=O)N2CCCC[C@H]2C(=O)N[C@H](Cc2cnc[nH]2)C(N)=O)C2CCCCC2)cc(OC)c1OC`, the values for the negative-log Ki (pKi) in assay [1] and in assay [2] were 4.57 and 5.42, respectively.

With `COc1cc([C@@H](C(=O)N2CCCC[C@H]2C(=O)N[C@@H](C)C(N)=O)C2CCCCC2)cc(OC)c1OC`, the negative logarithm of the Ki (pKi) is 4.51 in assay [1] and 4.77 in assay [2]. `C=CC[C@@H]1/C=C(\C)C[C@H](C)C[C@H](OC)[C@H]2O[C@@](O)(C(=O)C(=O)N3CCCC[C@H]3C(=O)O[C@H](/C(C)=C/[C@@H]3CC[C@@H](O)[C@H](OC)C3)[C@H](C)[C@@H](O)CC1=O)[C@H](C)C[C@@H]2OC` [TACROLIMUS ANHYDROUS]: the negative-log Ki (pKi) in assay [4] was 7.10.

Regarding `COc1cc([C@@H](C(=O)N2CCCC[C@H]2C(=O)NCCCCC(N)=O)C2CCCCC2)cc(OC)c1OC`, the pKi in assay [1] is 5.38; in assay [2] it was 5.41. As for `COc1cc([C@@H](C(=O)N2CCCC[C@H]2C(=O)NC2(C(N)=O)CCCCC2)C2CCCCC2)cc(OC)c1OC`, the pKi is 5.37 in assay [1] and 5.72 in assay [2]. In the case of `COc1cc([C@@H](C(=O)N2CCCC[C@H]2C(=O)N[C@@H](CCc2ccccc2)C(N)=O)C2CCCCC2)cc(OC)c1OC`, the pKi is 4.52 in assay [1] and 5.04 in assay [2]. As for `COc1cc([C@@H](C(=O)N2CCCC[C@H]2C(=O)N[C@H](C(N)=O)C(C)C)C2CCCCC2)cc(OC)c1OC`, the pKi in assay [1] is 4.94; in assay [2], 4.90. As to `CC[C@@H](NC(=O)[C@@H]1CCCCN1C(=O)[C@H](c1cc(OC)c(OC)c(OC)c1)C1CCCCC1)C(N)=O`, the negative-log Ki (pKi) in assay [1] is 5.22; in assay [2] it was 5.35. Take `COc1cc([C@@H](C(=O)N2CCCC[C@H]2C(=O)NC2(C(N)=O)CCOCC2)C2CCCCC2)cc(OC)c1OC`: the negative-log Ki (pKi) in assay [1] was 5.52; in assay [2], 5.74. Take `COc1cc([C@@H](C(=O)N2CCCC[C@H]2C(=O)N[C@H](CCO)C(N)=O)C2CCCCC2)cc(OC)c1OC`: the negative-log Ki (pKi) in assay [1] was 5.92. Take `COc1cc([C@@H](C(=O)N2CCCC[C@H]2C(=O)N[C@@H](CCC2CCCCC2)C(N)=O)C2CCCCC2)cc(OC)c1OC`: the negative logarithm of the Ki (pKi) in assay [1] was 4.65; in assay [2] it was 4.92. On the same counts, the results for `COc1cc([C@@H](C(=O)N2CCCC[C@H]2C(=O)NC2(C(N)=O)CCC2)C2CCCCC2)cc(OC)c1OC` are 4.63 and 5.31. `COc1cc([C@@H](C(=O)N2CCCC[C@H]2C(=O)NC(C)(C)CC(N)=O)C2CCCCC2)cc(OC)c1OC`: the negative-log Ki (pKi) was 5.49 in assay [1] and 5.42 in assay [2]. On to `COc1cc([C@@H](C(=O)N2CCCC[C@H]2C(=O)N[C@@H](CC(C)C)C(N)=O)C2CCCCC2)cc(OC)c1OC`, for which the values for the negative logarithm of the Ki (pKi) in assay [1] and in assay [2] were 5.18 and 5.06, respectively.

`COc1cc([C@@H](C(=O)N2CCCC[C@H]2C(=O)N[C@@H](Cc2cnc[nH]2)C(N)=O)C2CCCCC2)cc(OC)c1OC`: the negative logarithm of the Ki (pKi) in assay [1] was 4.00; in assay [2], 4.87. Turning to `COc1cc([C@@H](C(=O)N2CCCC[C@H]2C(=O)NCCCC(N)=O)C2CCCCC2)cc(OC)c1OC`, the pKi in assay [1] was 4.65; in assay [2] it was 5.24.

For `COc1cc([C@@H](C(=O)N2CCCC[C@H]2C(=O)N[C@H](C(N)=O)C2CCCCC2)C2CCCCC2)cc(OC)c1OC`, the negative-log Ki (pKi) in assay [1] was 4.89; in assay [2], 5.37.

Turning to `COc1cc([C@@H](C(=O)N2CCCC[C@H]2C(=O)N[C@@H](Cc2ccccc2)C(N)=O)C2CCCCC2)cc(OC)c1OC`, the negative logarithm of the Ki (pKi) was 4.96 in assay [1] and 5.19 in assay [2].

One may read the pKi as the negative decadic logarithm of the Ki, by convention in mol/L. The low end stands for a high Ki, the high end for a low Ki.
